Results on three compounds are retold here after US12679878B2, “CRF2 receptor agonists and their use in therapy” (SANOFI, priority 2020, dated 2026).

The target in series [1] is T1, human CRF2α receptor (Homo sapiens, UniProt Q13324).
T1 construct: expressed in transfected cells; host or cells: TeloHEAC
T1 sequence (Q13324 1-411): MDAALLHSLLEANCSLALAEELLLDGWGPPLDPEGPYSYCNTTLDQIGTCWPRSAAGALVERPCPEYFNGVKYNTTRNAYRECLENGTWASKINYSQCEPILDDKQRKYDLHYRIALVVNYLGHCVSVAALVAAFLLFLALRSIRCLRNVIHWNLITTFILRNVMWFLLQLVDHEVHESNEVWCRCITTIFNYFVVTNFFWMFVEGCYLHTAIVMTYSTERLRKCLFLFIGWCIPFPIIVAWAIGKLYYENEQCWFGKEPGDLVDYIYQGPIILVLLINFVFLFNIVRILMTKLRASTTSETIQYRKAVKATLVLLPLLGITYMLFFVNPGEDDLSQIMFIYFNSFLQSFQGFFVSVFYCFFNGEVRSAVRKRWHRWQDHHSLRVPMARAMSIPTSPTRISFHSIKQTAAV
Briefly: cAMP agonism at human CRF2 α receptor in TeloHEAC cells (Example 7). It is filed as cell-based. To be noted: cAMP HTRF, TeloHEAC cells stably expressing human CRF2 α. In a few lines: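 Percent activation was referenced to 1000 nM UCN2 (100%), and EC50 values taken as concentrations giving half of maximal response. The read-out was a homogeneous time-resolved fluorescence cAMP kit, fluorescence ratio 665/620 nm. Thawed cells (2000/well) saw compound for 30 min at RT in buffer with 2 mM IBMX and 0%/0.1% HSA.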
A general note: Time-resolved FRET reads energy transfer from a long-lived donor to a nearby acceptor.

For series [2], the target named is T2, CRF1R receptor (Homo sapiens, UniProt P34998).
T2 construct: host or cells: CHO-K1 clone 2
T2 sequence (P34998 24-415): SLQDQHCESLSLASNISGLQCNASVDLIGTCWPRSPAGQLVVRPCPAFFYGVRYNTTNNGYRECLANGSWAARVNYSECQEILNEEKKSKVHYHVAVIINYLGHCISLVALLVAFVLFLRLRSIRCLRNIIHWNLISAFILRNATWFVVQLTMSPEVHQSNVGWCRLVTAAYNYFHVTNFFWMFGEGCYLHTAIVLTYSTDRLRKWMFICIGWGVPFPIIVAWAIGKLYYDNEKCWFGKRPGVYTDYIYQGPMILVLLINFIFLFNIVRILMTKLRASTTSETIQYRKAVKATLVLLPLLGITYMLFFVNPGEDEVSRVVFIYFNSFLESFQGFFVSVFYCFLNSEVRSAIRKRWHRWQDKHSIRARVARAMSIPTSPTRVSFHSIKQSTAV
Briefly: cAMP activity at anti-target CRF1R, CRF1R-overexpression CHO cell line (Example 9). It is filed as cell-based. As to conditions: CRF1R-overexpression CHO cell line; for EC50: 0% HSA; for Emax: read-out: Emax (%). In a few lines:
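cAMP accumulation was read by HTRF after 30 min at room temperature of compound treatment. Cells were cryopreserved CHO cells overexpressing CRF1R, plated at 2000/well in IBMX (2 mM)-containing HBSS/HEPES buffer with 0 or 0.1% HSA. Activity was normalized to 1000 nM UCN2 as 100%.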

A short description of series [3]: Solubility in buffer systems by UPLC-UV (Example 13). It is filed as physicochemical. As to conditions: pH 4.5, Solubility in Buffer B [mg/ml]. The essentials: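 The supernatant was diluted 1:10 and quantified by UPLC-UV peak area against a reference standard curve, correcting for sequence-based extinction coefficients.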
The nature of series [4]: Physical stability, Thioflavin T fibrillation assay (Example 14). It is filed as physicochemical. As to conditions: 3 mg/ml, 37° C. shaking. The method, then: The physical stability of the compounds was assessed using a Thioflavin T (ThT) assay.
The time course for fibril formation often follows the characteristic shape of a sigmoidal curve and can be separated into three regions: a lag phase, a fast growth phase, and a plateau phase. The typical fibril formation process starts with the lag phase in which the amount of partially folded peptide turned into fibrils is not significant enough to be detected. The lag-time corresponds to the time the critical mass of the nucleus is built. Afterwards, a drastic elongation phase follows and fibril concentration increases rapidly. Therefore, by measuring the increase in fluorescence intensity attributable to ThT as well as the lag time of the increase, the fibrillation tendency of a peptide can be determined, thereby providing a measure of the physical stability of the peptide.
In the present study, test compounds were diluted in buffer to a final concentration of 3 mg/ml.
The fibrillation tendencies of the peptides were determined under stress using a Fluoroskan Ascent FL or Fluoroskan Ascent fluorometer. […] Plates were sealed with Scotch Tape (Quiagen). Samples were stressed by continuous cycles of 10 s shaking at 960 rpm and 50 s rest period at 37° C. Fibril development was monitored by measuring fluorescence intensity every 20 minutes. For each sample, eight replicates were tested.

Series [5] deals with rat CRF2R α receptor. Description: cAMP agonism at rat CRF2R α receptor in A7R5 rat aortic smooth muscle cells (Example 8). It is filed as cell-based. As to conditions: cAMP HTRF, A7R5 rat aortic smooth muscle cell line, 0% HSA. In a few lines: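 Thawed cryopreserved A7R5 cells in HBSS/20 mM HEPES (0 or 0.1% HSA) with 2 mM IBMX, 2000 cells/well, were exposed to compound for 30 min at room temperature. cAMP was read by HTRF (665/620 nm ratio) after 1 h with lysis reagents. Activity was normalised to 1000 nM urocortin 2 as 100%, and EC50 was taken as the concentration giving 50% of maximal activation.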

Where [6] appears, read: 0% HSA, read-out: EC50 [nM], 0% HSA.
The mark [7] stands for this setting: Buffer A: 100 mM acetate buffer, pH 4.5.
The mark [8] stands for this setting: 0.1% HSA, read-out: EC50 [nM], 0.1% HSA.
Where [9] appears, read: Buffer B: 100 mM acetate buffer, pH 4.5, 2.7 mg/ml m-cresol.

Where two headings read alike, the source gives them in different places. Starred links: 1 amine or outer side, 2 acyl side, 3 side chain; linkers in the order of their positions; H or OH if unused. Non-standard residues stand in square brackets, D forms with d. Residues, ends and D or L forms follow the SMILES beside them. Groups on a side chain read outwards from the residue. *: point of attachment. C18 diacid = O=C(O)CCCCCCCCCCCCCCCCC(=O)*; γGlu = O=C(O)[C@H](CCC(=O)[*:2])N[*:1]; Palmitoyl = CCCCCCCCCCCCCCCC(=O)*; AEEA = NCCOCCOCC(=O)O; Aib = CC(C)(N)C(=O)O

On to `CCCCCCCCCCCCCCCC(=O)N[C@@H](CCC(=O)NCCCC[C@H](NC(=O)[C@H](CC(C)C)NC(=O)CNC(=O)[C@@H](NC(=O)[C@@H]1CCCN1C(=O)[C@@H](NC(=O)[C@H](CC(=O)O)NC(=O)[C@H](CC(C)C)NC(=O)[C@H](CO)NC(=O)[C@H](CC(C)C)NC(=O)[C@@H](NC(=O)[C@@H](N)[C@@H](C)CC)C(C)C)C(C)C)[C@@H](C)CC)C(=O)N[C@@H](CCC(N)=O)C(=O)N[C@@H](CCCCN)C(=O)N[C@@H](CC(C)C)C(=O)N[C@@H](CC(C)C)C(=O)N[C@@H](CCCCN)C(=O)N[C@@H](CCC(N)=O)C(=O)N[C@@H](CCC(=O)O)C(=O)N[C@@H](CCCCN)C(=O)N[C@@H](CCC(N)=O)C(=O)N[C@@H](CCC(=O)O)C(=O)N[C@@H](CCCCN)C(=O)N[C@@H](CCC(=O)O)C(=O)N[C@@H](CCCCN)C(=O)N[C@@H](CCC(N)=O)C(=O)N[C@@H](CCC(N)=O)C(=O)N[C@@H](C)C(=O)N[C@@H](CCC(=O)O)C(=O)N[C@H](C(=O)N[C@@H](CC(N)=O)C(=O)N[C@@H](C)C(=O)N[C@@H](CCCCN)C(=O)N[C@H](C(=O)N[C@@H](CC(C)C)C(=O)N[C@@H](C)C(=O)N[C@@H](CCC(N)=O)C(=O)N[C@H](C(N)=O)C(C)C)[C@@H](C)CC)[C@@H](C)O)C(=O)O` [compound 4] (H-IVLSLDVPIGLK([γGlu-Palmitoyl])QKLLKQEKQEKEKQQAETNAKILAQV-NH2; N-terminus assumed), for which the concentration giving a half-maximal response (EC50) in series [1] (setting [6]) was found to be 0.04 nM. In series [2], the EC50 was above 1000 nM and the maximal effect (Emax) was found to be 17.4%. Further, the solubility at 1 h in series [3] is above 9600 µg/mL. Also, in series [4] (setting [7]), the “Increase in FI (fluorescence intensity)” value is listed as “Yes” and the “Lag time” value is 18 h.
As to `CC[C@H](C)[C@H](N)C(=O)N[C@H](C(=O)N[C@@H](CC(C)C)C(=O)N[C@@H](CO)C(=O)N[C@@H](CC(C)C)C(=O)N[C@@H](CC(=O)O)C(=O)N[C@@H](C(=O)N1CCC[C@H]1C(=O)N[C@H](C(=O)NCC(=O)N[C@@H](CC(C)C)C(=O)N[C@@H](CCCCNC(=O)COCCOCCNC(=O)COCCOCCNC(=O)CC[C@H](NC(=O)CCCCCCCCCCCCCCCCC(=O)O)C(=O)O)C(=O)N[C@@H](CCC(N)=O)C(=O)N[C@H](C(=O)N[C@@H](CC(C)C)C(=O)N[C@@H](CC(C)C)C(=O)N[C@@H](CCCCN)C(=O)N[C@@H](CCC(N)=O)C(=O)N[C@@H](CCC(=O)O)C(=O)N[C@@H](CCCNC(=N)N)C(=O)N[C@@H](CCC(N)=O)C(=O)N[C@@H](CCCCN)C(=O)N[C@@H](CCCCN)C(=O)NC(C)(C)C(=O)N[C@@H](CCCNC(=N)N)C(=O)N[C@@H](CCC(=O)O)C(=O)N[C@@H](CCC(N)=O)C(=O)N[C@@H](C)C(=O)N[C@@H](CCC(=O)O)C(=O)N[C@H](C(=O)N[C@@H](CC(N)=O)C(=O)N[C@@H](CCCCN)C(=O)N[C@@H](CCCNC(=N)N)C(=O)N[C@H](C(=O)N[C@@H](CC(C)C)C(=O)N[C@@H](CCC(=O)O)C(=O)N[C@@H](CCCNC(=N)N)C(=O)N[C@H](C(N)=O)C(C)C)[C@@H](C)CC)[C@@H](C)O)[C@@H](C)CC)[C@@H](C)CC)C(C)C)C(C)C` [compound 83] (H-IVLSLD[dV]PIGLK([AEEA-AEEA-γGlu-C18 diacid])QILLKQERQKK[Aib]REQAETNKRILERV-NH2; N-terminus assumed), the EC50 in series [1] (setting [6]) is 0.07 nM; in series [1] (setting [8]) it was 2.99 nM; in series [5] it was 1.83 nM; in series [2], above 1000 nM. In addition, the Emax in series [2] was determined as 7.51%. For the same compound, in series [4] (setting [9]), the “Increase in FI (fluorescence intensity)” value was “No”. Besides, the “Lag time” value in series [4] (setting [9]) is on record as above 45 h.
As to `CC[C@H](C)[C@H](N)C(=O)N[C@H](C(=O)N[C@@H](CC(C)C)C(=O)N[C@@H](CO)C(=O)N[C@@H](CC(C)C)C(=O)N[C@@H](CC(=O)O)C(=O)N[C@@H](C(=O)N1CCC[C@H]1C(=O)N[C@H](C(=O)N[C@@H](CCCCN)C(=O)N[C@@H](CC(C)C)C(=O)N[C@@H](CCCCNC(=O)COCCOCCNC(=O)COCCOCCNC(=O)CC[C@H](NC(=O)CCCCCCCCCCCCCCCCC(=O)O)C(=O)O)C(=O)N[C@@H](CCC(N)=O)C(=O)N[C@H](C(=O)N[C@@H](CC(C)C)C(=O)N[C@@H](CC(C)C)C(=O)N[C@@H](CCC(=O)O)C(=O)N[C@@H](CCC(N)=O)C(=O)N[C@@H](CCC(=O)O)C(=O)N[C@@H](CCCNC(=N)N)C(=O)N[C@@H](CCC(N)=O)C(=O)N[C@@H](CCCCN)C(=O)NC(C)(C)C(=O)N[C@@H](CCC(N)=O)C(=O)N[C@@H](CCCNC(=N)N)C(=O)N[C@@H](CCC(=O)O)C(=O)N[C@@H](CCC(N)=O)C(=O)N[C@@H](C)C(=O)N[C@@H](CCC(=O)O)C(=O)N[C@@H](CCCCN)C(=O)N[C@@H](CC(N)=O)C(=O)N[C@@H](CCCCN)C(=O)N[C@@H](CCC(N)=O)C(=O)N[C@H](C(=O)N[C@@H](CC(C)C)C(=O)N[C@@H](CCC(=O)O)C(=O)N[C@@H](CCCNC(=N)N)C(=O)N[C@H](C(N)=O)C(C)C)[C@@H](C)CC)[C@@H](C)CC)[C@@H](C)CC)C(C)C)C(C)C` [compound 132] (H-IVLSLD[dV]PIKLK([AEEA-AEEA-γGlu-C18 diacid])QILLEQERQK[Aib]QREQAEKNKQILERV-NH2), the EC50 in series [1] (setting [6]) was 0.38 nM; in series [1] (setting [8]), 8.76 nM; in series [5], 0.79 nM; in series [2], above 1000 nM. Further, the Emax in series [2] is 36.9%. Besides, the “Increase in FI (fluorescence intensity)” value in series [4] (setting [9]) is recorded as “No”. Further, the “Lag time” value in series [4] (setting [9]) is above 45 h.

One may read the EC50 as the concentration giving half of the maximal effect. Broadly, the Emax is the maximal effect, on the per cent scale that the assay sets. Broadly, the solubility is how much of the substance goes into solution per volume.
